Two compounds from article doi:10.1101/2023.10.24.563163v2, “Targeting cancer with small molecule pan-KRAS degraders” (biorxiv, 2024) can be followed below.

Like-named read-outs stand apart in the source and are kept apart here.

One experiment addresses T1, KRAS^WT (Homo sapiens, UniProt P01116).
T1 construct: endogenous wild type
On the set-up: KRAS degradation by capillary electrophoresis immunodetection. The conditions noted are these: read-out: DC50 24 h A375.

For experiment [1], the target named is T2, KRAS^G12C (Homo sapiens, UniProt P01116, G12C). On the set-up: endogenous in NCI-H358; KRAS degradation by capillary electrophoresis (Wes) immunodetection. To be noted: NCI-H358; 6 h; degrader. How it is done: Protein Detection by Capillary Electrophoresis Cells (50 000) were seeded the day before treatment into 96-well clear-flat bottom plates and incubated overnight (37 °C, humidified tissue culture incubator, 5% CO2). […] At the end of the incubation, medium was removed, cells washed with ice cold PBS, PBS removed and 50 µL lysis buffer (Meso Scale Discovery #R60TX-2) supplemented with 1:100 protease inhibitor solution, 1:100 phosphatase inhibitor I, 1:100 phosphatase inhibitor II (Meso Scale Discovery #R70AA-1), 0.5 µL/mL Benzonase (Novagen #70664-3) and 10 mM dithiothreitol added to each well. Plates with lysis buffer were immediately transferred to -80 °C freezer for at least 2 hours and then thawed on ice. Lysates were transferred to a 96 well V-bottom plate and insoluble debris was pelleted by centrifugation for 20 min. at 4 000 rpm. 40 µL of the supernatant were transferred to a fresh Eppendorf PCR plate. Analysis of protein levels was conducted using the Wes System, ProteinSimple (https://www.bio-techne.com/) as specified by the manufacturer. Briefly, Wes Master Mix (12-230 kDa WES Separation Module, 8 × 25 capillary cartridges, ProteinSimple #SM-W004) and molecular weight markers were prepared as specified in the manufacturer’s recommendations. To detect primary antibodies, anti-rabbit (Protein Simple #DM-001) or anti-mouse (Protein Simple #DM-002) detection modules were used. […]
T2 sequence (P01116 whole entry G12C): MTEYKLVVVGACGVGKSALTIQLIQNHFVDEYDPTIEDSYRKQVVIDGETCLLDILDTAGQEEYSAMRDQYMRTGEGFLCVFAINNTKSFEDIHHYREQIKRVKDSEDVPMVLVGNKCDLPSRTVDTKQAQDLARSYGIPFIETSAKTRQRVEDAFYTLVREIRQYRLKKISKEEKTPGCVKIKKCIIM

The next experiment has as its target KRAS^G12D (Homo sapiens, UniProt P01116, G12D). On the set-up: endogenous or HiBiT-tagged in cells; KRAS degradation by capillary electrophoresis (Wes) immunodetection. To be noted: GP2d; 6 h; degrader.
Another experiment has as its system NCI-H358. Description: cells. The conditions noted are these: Homo sapiens, NCI-H358, 120 h; read-out: IC50 Proliferation NCI-H358. On the set-up: Inhibition of cell proliferation, 5 days. The source says:
Next, we set out to test the ability of a single pan-KRAS degrading molecule, compound 4, to selectively suppress oncogenic signaling and proliferation in cancer cell lines driven by diverse KRAS mutants. To this end, we first confirmed degradation of KRAS by compound 4 in KRAS-dependent (GP2d, SW620 and NCI-H358 expressing KRAS^G12D, - G12V or -G12C, respectively) as well as in KRAS independent (A-375, HEK293) cell lines (Fig. 3A, fig. S4A). […] Both inhibition and degradation repressed the established markers of MAPK signaling pERK (fig. S4B-D) and DUSP6 (Fig. 3B, fig. S4E) in KRAS dependent cell lines. […] Neither degradation nor inhibition had appreciable antiproliferative effects in the KRAS independent cell lines A-375 and HEK293 (Fig. 3C, fig. S4F). […] Pan-KRAS degradation impacts MAPK signaling and cancer cell proliferation.

The target of experiment [2] is T2, KRAS^G12C. The arrangement: endogenous; KRAS degradation by capillary electrophoresis immunodetection. To be noted: read-out: DC50 24 h NCI-H358. How it is done: Protein Detection by Capillary Electrophoresis Cells (50 000) were seeded the day before treatment into 96-well clear-flat bottom plates and incubated overnight (37 °C, humidified tissue culture incubator, 5% CO2). Compounds were added from DMSO stock solution using a digital dispenser and cells are incubated at 37 °C as specified (24 hours for KRAS degradation, 6 hours for determination of pERK levels). At the end of the incubation, medium was removed, cells washed with ice cold PBS, PBS removed and 50 µL lysis buffer (Meso Scale Discovery #R60TX-2) supplemented with 1:100 protease inhibitor solution, 1:100 phosphatase inhibitor I, 1:100 phosphatase inhibitor II (Meso Scale Discovery #R70AA-1), 0.5 µL/mL Benzonase (Novagen #70664-3) and 10 mM dithiothreitol added to each well. Plates with lysis buffer were immediately transferred to -80 °C freezer for at least 2 hours and then thawed on ice. Lysates were transferred to a 96 well V-bottom plate and insoluble debris was pelleted by centrifugation for 20 min. at 4 000 rpm. 40 µL of the supernatant were transferred to a fresh Eppendorf PCR plate. Analysis of protein levels was conducted using the Wes System, ProteinSimple (https://www.bio-techne.com/) as specified by the manufacturer. […]

In another experiment the target is T3, KRAS wild type (Homo sapiens, UniProt P01116).
T3 construct: endogenous in A375 / HEK293
T3 sequence (P01116 whole entry): as the sequence (P01116 whole entry G12C) above, with C12G counted along it
On the set-up: KRAS degradation by capillary electrophoresis (Wes) immunodetection. The conditions noted are these: 6 h, degrader.

Sequence of KRAS^G12D (P01116 whole entry G12D): as the sequence (P01116 whole entry G12C) above, with C12D counted along it
T1 sequence (P01116 whole entry): as the sequence (P01116 whole entry G12C) above, with C12G counted along it
Method for KRAS wild type: Protein Detection by Capillary Electrophoresis Cells (50 000) were seeded the day before treatment into 96-well clear-flat bottom plates and incubated overnight (37 °C, humidified tissue culture incubator, 5% CO2). Compounds were added from DMSO stock solution using a digital dispenser and cells are incubated at 37 °C as specified (24 hours for KRAS degradation, 6 hours for determination of pERK levels). At the end of the incubation, medium was removed, cells washed with ice cold PBS, PBS removed and 50 µL lysis buffer (Meso Scale Discovery #R60TX-2) supplemented with 1:100 protease inhibitor solution, 1:100 phosphatase inhibitor I, 1:100 phosphatase inhibitor II (Meso Scale Discovery #R70AA-1), 0.5 µL/mL Benzonase (Novagen #70664-3) and 10 mM dithiothreitol added to each well. Plates with lysis buffer were immediately transferred to -80 °C freezer for at least 2 hours and then thawed on ice. Lysates were transferred to a 96 well V-bottom plate and insoluble debris was pelleted by centrifugation for 20 min. at 4 000 rpm. 40 µL of the supernatant were transferred to a fresh Eppendorf PCR plate. Analysis of protein levels was conducted using the Wes System, ProteinSimple (https://www.bio-techne.com/) as specified by the manufacturer. Briefly, Wes Master Mix (12-230 kDa WES Separation Module, 8 × 25 capillary cartridges, ProteinSimple #SM-W004) and molecular weight markers were prepared as specified in the manufacturer’s recommendations. To detect primary antibodies, anti-rabbit (Protein Simple #DM-001) or anti-mouse (Protein Simple #DM-002) detection modules were used. 7.2 µL lysate + 1.8 µL master mix were combined and heated to 95 °C for 5 min.

Usually DC50 stands for the concentration at which degradation of the target reaches its halfway point. Take `Cc1ncsc1-c1ccc(CNC(=O)[C@@H]2C[C@@H](O)CN2C(=O)[C@@H](NC(=O)CCCCCN2CCCN(c3nccc(-c4noc([C@@]5(C)CCCc6sc(N)c(C#N)c65)n4)n3)[C@@H](C)C2)C(C)(C)C)cc1` [compound 3]: the DC50 is 0.455 µM on KRAS^WT; 0.159 µM on KRAS^G12C [1]; 0.0534 µM on KRAS^G12D; 0.241 µM at KRAS^G12C [2]; 0.751 µM on KRAS wild type (A375); above 1 µM at KRAS wild type (HEK293). Besides, the IC50 with NCI-H358 is 0.983 µM.
On to `Cc1ncsc1-c1ccc(CNC(=O)[C@@H]2C[C@@H](O)CN2C(=O)[C@@H](c2cc(OCCCCN3CCCN(c4nccc(-c5noc([C@@]6(C)CCCc7sc(N)c(C#N)c76)n5)n4)[C@@H](C)C3)no2)C(C)C)cc1` [compound 4], for which the DC50 was 0.0334 µM on KRAS^WT; 0.0196 µM at KRAS^G12C [1]; 0.0073 µM at KRAS^G12D; 0.0251 µM at KRAS^G12C [2]; 0.0367 µM on KRAS wild type (A375); 0.0128 µM at KRAS wild type (HEK293). In the experiment on NCI-H358, the IC50 was determined as 0.0854 µM.
